Test results published in US20180360810A1, “NUPHARIDINE COMPOUNDS AND DERIVATIVES THEREOF FOR THE TREATMENT OF CYSTEINE PROTEASE RELATED DISEASES” (B. G. NEGEV TECHNOLOGIES AND APPLICATIONS LTD., AT …, priority 2015, published 2018).

How the values were obtained:
Format in all cases: biochemical
Human Cathepsin S = biological target: T1, Human Cathepsin S (Homo sapiens, UniProt P25774); test: Cathepsin S fluorometric inhibition assay; conditions: substrate ES002; pH 4.5; molarity calculated on assumed molecular weight of 526 daltons; read-out: IC50 (Nanomolar)
T1 construct: purchased
T1 sequence (P25774 115-331): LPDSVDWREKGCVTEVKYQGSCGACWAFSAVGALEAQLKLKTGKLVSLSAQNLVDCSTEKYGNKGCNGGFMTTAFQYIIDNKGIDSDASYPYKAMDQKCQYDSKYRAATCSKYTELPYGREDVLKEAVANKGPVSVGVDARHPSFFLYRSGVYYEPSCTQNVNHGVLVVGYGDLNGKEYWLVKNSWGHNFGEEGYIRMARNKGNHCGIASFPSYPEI
Experimental: (§1) Inhibition assays were performed in triplicates using 96 well plates transparent for Calpain, Trypsin, Papain, Cathepsin L and Cathepsin B (167008; Nunc, Roskilde, Denmark), or black for Cathepsin S, Cathepsin D and Insulyzin (ide) (Greiner 96 Polystyrol GRE96fb) according to manufacturers' instructions. Briefly, reaction mixture of 100 μl contained: 45 μl of enzyme in assay buffer, 5 μl of inhibitors diluted in DMSO. 50 μl substrate prepared in assay buffer according to manufacturers' instructions. The inhibitor was serially diluted in DMSO to concentrations from 0.0075 μg/μL to 0.0000075 μg/μL. 5 μl DMSO was added to control sample. Cathepsin substrate mix was added last just before starting the fluorometric measurement. Data was collected for 1.5 h at 60 sec intervals. Molarity of inhibitors were calculated based on assumed molecular weight of 526 daltons as a reference value for comparative evaluations.

Human Cathepsin L = biological target: T2, Human Cathepsin L (Homo sapiens, UniProt P07711); test: Cathepsin L fluorometric inhibition assay; conditions: substrate Ac-FR-AFC; CTSL Assay Buffer; molarity calculated on assumed molecular weight of 526 daltons; read-out: IC50 (Nanomolar)
T2 construct: purchased
T2 sequence (P07711 114-333): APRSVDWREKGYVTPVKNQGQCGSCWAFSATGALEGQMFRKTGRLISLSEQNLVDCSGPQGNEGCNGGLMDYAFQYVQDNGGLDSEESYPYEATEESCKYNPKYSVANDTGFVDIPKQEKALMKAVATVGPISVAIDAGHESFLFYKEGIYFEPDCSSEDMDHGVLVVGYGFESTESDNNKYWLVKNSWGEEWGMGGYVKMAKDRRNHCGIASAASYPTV
Experimental: as §1

Human rCathepsin D = biological target: T3, Human rCathepsin D (Homo sapiens, UniProt P07339); test: Cathepsin D fluorometric inhibition assay; conditions: substrate ES001; pH 3.5; molarity calculated on assumed molecular weight of 526 daltons; read-out: IC50 (Nanomolar)
T3 construct: purchased
T3 sequence (P07339 65-412): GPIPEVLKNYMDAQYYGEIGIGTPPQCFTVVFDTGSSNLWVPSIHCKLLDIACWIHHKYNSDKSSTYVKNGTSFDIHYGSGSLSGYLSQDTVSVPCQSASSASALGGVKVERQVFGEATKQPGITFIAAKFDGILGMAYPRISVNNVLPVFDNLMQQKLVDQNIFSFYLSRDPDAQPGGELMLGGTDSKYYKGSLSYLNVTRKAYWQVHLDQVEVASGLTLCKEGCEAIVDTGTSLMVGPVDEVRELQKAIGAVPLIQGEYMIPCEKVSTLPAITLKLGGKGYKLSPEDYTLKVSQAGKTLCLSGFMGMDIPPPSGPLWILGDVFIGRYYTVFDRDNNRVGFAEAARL
Experimental: as §1

Human Insulyzin (ide) = biological target: T4, Human Insulyzin (ide) (Homo sapiens, UniProt P14735); test: Insulyzin (ide) fluorometric inhibition assay; conditions: substrate ES005; pH 7.5; molarity calculated on assumed molecular weight of 526 daltons; read-out: IC50 (Nanomolar)
T4 construct: purchased
T4 sequence (P14735 1-1019): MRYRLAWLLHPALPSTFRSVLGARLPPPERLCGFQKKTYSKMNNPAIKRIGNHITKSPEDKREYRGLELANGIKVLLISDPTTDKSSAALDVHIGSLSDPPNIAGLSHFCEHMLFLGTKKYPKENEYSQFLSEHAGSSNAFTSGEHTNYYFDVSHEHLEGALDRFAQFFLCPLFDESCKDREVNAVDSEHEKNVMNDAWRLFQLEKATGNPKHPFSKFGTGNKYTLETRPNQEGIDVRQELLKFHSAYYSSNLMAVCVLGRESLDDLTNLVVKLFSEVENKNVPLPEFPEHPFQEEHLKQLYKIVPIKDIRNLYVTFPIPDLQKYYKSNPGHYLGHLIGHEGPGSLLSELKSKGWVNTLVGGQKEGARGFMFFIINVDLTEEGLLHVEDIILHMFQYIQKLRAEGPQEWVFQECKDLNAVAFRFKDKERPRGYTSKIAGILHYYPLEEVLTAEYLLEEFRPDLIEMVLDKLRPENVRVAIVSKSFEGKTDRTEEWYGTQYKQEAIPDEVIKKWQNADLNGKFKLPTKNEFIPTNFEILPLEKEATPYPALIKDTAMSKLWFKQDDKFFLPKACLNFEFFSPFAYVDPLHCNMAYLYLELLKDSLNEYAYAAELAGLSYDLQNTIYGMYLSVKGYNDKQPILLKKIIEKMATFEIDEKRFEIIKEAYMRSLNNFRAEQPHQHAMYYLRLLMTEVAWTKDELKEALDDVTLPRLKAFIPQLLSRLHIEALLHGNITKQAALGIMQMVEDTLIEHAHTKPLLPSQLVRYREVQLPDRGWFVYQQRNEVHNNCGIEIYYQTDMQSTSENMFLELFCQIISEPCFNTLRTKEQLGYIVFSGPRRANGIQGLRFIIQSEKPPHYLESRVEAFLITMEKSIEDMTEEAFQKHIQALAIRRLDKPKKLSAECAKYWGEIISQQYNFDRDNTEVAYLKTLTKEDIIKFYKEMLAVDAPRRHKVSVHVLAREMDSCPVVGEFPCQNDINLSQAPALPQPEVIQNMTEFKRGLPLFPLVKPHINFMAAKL
Experimental: as §1

Human Cathepsin B = biological target: T5, Human Cathepsin B (Homo sapiens, UniProt P07858); test: Cathepsin B inhibition assay, Casein FITC; conditions: substrate Casein FITC; pH 6.5; molarity calculated on assumed molecular weight of 526 daltons; read-out: IC50 (Nanomolar)
T5 construct: purchased
Experimental: as §1

Trypsin = Trypsin inhibition assay, Casein FITC; conditions: substrate Casein FITC; 0.3M potassium chloride, 0.1 mM EDTA, 3 mM DTT pH 6.5
Experimental: as §1
The specificity of the reaction was tested by treatment of trypsin, a serine protease with the above mentioned compounds and no inhibitory activity was found (as shown in FIG. 2).

Calpain = Calpain inhibition assay, Casein FITC; conditions: substrate Casein FITC; 0.3M potassium chloride, 0.1 mM EDTA, 3 mM DTT pH 6.5, 2 mM CaCl2
Experimental: as §1

papain = biological target: T6, papain (Carica papaya, UniProt P00784); test: Protease Fluorescent Detection Kit, inhibition of papain activity; conditions: FITC-labeled casein substrate; 10 μg papain in 50 μL; various concentrations of inhibitor
T6 sequence (P00784 134-345): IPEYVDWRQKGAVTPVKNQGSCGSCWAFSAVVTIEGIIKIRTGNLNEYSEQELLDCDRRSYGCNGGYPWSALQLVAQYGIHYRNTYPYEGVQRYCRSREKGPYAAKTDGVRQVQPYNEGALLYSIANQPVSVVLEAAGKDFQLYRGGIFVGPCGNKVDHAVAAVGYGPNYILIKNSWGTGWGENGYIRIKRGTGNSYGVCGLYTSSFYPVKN
Experimental: The Protease Fluorescent Detection Kit of Sigma Aldrich was used for measurement of protease activity using fluorometry. In exemplary embodiments, the method is based on the proteolytic hydrolysis of a proprietary formulation of a FITC-labeled casein substrate. The reaction mixture contained in a final volume of 50 μL, 10 μg papain and various concentrations of the candidate inhibitor.

IC50 (Human Cathepsin S) [nM] | IC50 (Human Cathepsin L) [nM] | IC50 (Human rCathepsin D) [nM] | IC50 (Human Insulyzin (ide)) [nM] | IC50 (Human Cathepsin B) [nM] | IC50 (Microgram/ml / Nanomolar) (Trypsin) | IC50 (Microgram/ml / Nanomolar) (Calpain) | Molecule | inhibition of papain activity (FIG. 1) (papain)
0.08 | 0.266 | 0.07 | 0.33 | 21.8 | no inhibition | no inhibition | 6 6′dihydroxybinupharidine [Nup-3 sigma] | –
– | 0.056 | 0.32 | 0.85 | 29.4 | – | – | 6 hydroxybinupharidine [Nup-4 sigma] | –
– | – | – | – | – | – | – | C1=[N+](CCCCc2ccccc2)CCCC12CC1(C=[N+](CCCCCc3ccccc3)CC1)CS2 (stereo not drawn) [6-61] | demonstrated an inhibition of papain activity
